Laboratory results from patent US12194015B2, “Composition comprising ferrous amino acid particles and method for treating or ameliorating pancreas-related disease using the same” (priority 2018, dated 2025).
“And” between values parts separate entries of the source, which are not always exact repeats. Equal values may be shown once.

Key:
[1] = test system: orthotopic xenograft pancreatic cancer (PANC-1); test: Therapeutic effect (I) with gemcitabine: tumor growth (IVIS) and survival (Example 6); format: in vivo, NOD-SCID mice
Experimental: The human pancreatic adenocarcinoma cell line PANC-1 obtained from preparation example 2 was cloned and labelled with luminescence and fluorescence vector. The luminescence and fluorescence-labelled cells were implanted into pancreas of experimental mice (50 NOD-SCID experimental mice purchased from BioLASCO Taiwan Co., Ltd) with a cell number of 5×10^5 by surgery. 10 days after the cell implantation to the pancreas of the animals, the baseline data was measured by noninvasive in vivo imaging system (IVIS). After the baseline IVIS data were obtained, all the experimental mice were randomly and evenly assigned into groups [the value of mean±3 s.d. of measured IVIS data was calculated, and the animals having an IVIS data within the standard range were assigned into control group (physiological saline was used), the group of the composition of the present invention obtained from preparation example (24 mg/kg the composition obtained for preparation example 1 was administrated directly into the stomachs of the mice through feeding tubes once per day), gemcitabine group (100 mg/kg gemcitabine was administered by intravenous injection twice per week), and combination group (24 mg/kg the composition of the present invention was administered daily and 100 mg/kg gemcitabine was administered twice per week), followed by the administration. The dosage and dosage regimen of the composition of the present invention were decided based on the results of example 4 that there were no significant differences between the high-dose group and the low-dose group, so the dosage of 24 mg/kg was chosen for this experiment. The dosage and the dosage regimen of first-line drug for the pancreatic cancer were decided in accordance with two journal articles: Cook, Natalie, et al. “Gamma secretase inhibition promotes hypoxic necrosis in mouse pancreatic ductal adenocarcinoma.” Journal of Experimental Medicine 209.3 (2012): 437-444. and Olive, Kenneth P., et al. “Inhibition of Hedgehog signaling enhances delivery of chemotherapy in a mouse model of pancreatic cancer.” Science (2009), so that the gemcitabine was administered at the dosage of 100 mg/kg twice per week for the experiment. The time points of IVIS data measurement were: Baseline 10 Day (Baseline 10D), the 17th day (the 7th day after administration), the 24th day (14 days after treatment), the 31st day (21 days after treatment), and the 38th day (28 days after treatment) of the experiment. […] The survival period of each mouse during the experiment was recorded.

[2] = Jaundice observation and blood tests T-bilirubin, GOT/AST, GPT/ALT (Example 6); format: in vivo, NOD-SCID mice
Experimental: The luminescence and fluorescence-labelled cells were implanted into pancreas of experimental mice (50 NOD-SCID experimental mice purchased from BioLASCO Taiwan Co., Ltd) with a cell number of 5×10^5 by surgery. 10 days after the cell implantation to the pancreas of the animals, the baseline data was measured by noninvasive in vivo imaging system (IVIS). After the baseline IVIS data were obtained, all the experimental mice were randomly and evenly assigned into groups [the value of mean±3 s.d. of measured IVIS data was calculated, and the animals having an IVIS data within the standard range were assigned into control group (physiological saline was used), the group of the composition of the present invention obtained from preparation example (24 mg/kg the composition obtained for preparation example 1 was administrated directly into the stomachs of the mice through feeding tubes once per day), gemcitabine group (100 mg/kg gemcitabine was administered by intravenous injection twice per week), and combination group (24 mg/kg the composition of the present invention was administered daily and 100 mg/kg gemcitabine was administered twice per week), followed by the administration. […] The blood tests for total bilirubin (T-bilirubin), glutamate oxaloacetate transaminase/aspartate aminotransferase (GOT/AST), and glutamate pyruvate transaminase/alanine transaminase (GPT/ALT) of all experimental animals on the 9th week were conducted and the mice were observed whether the jaundice occurred or not by the naked eyes. The jaundice signs of mice which could be observed by naked eyes included: emaciation, swollen gall, yellow dark skin, and abnormal yellow limbs and tail.

[3] = test system: orthotopic xenograft pancreatic cancer (PANC-1); test: Therapeutic effect (II) with gemcitabine cycles: tumor growth (IVIS) and survival (Example 7); format: in vivo, NOD-SCID mice; conditions: for inhibition of the tumor growth of the orthotopic xenograft pancreatic cancer compared to control: composition 24 mg/kg daily, gemcitabine 100 mg/kg in gemcitabine cycles
Experimental: The human pancreatic adenocarcinoma cell line PANC-1 obtained from preparation example 2 was cloned and labelled with luminescence and fluorescence vector. The luminescence and fluorescence-labelled cells were implanted into pancreas of experimental mice (40 NOD-SCID experimental mice purchased from BioLASCO Taiwan Co., Ltd) with a cell number of 5×10^5 by surgery. 10 days after the cell implantation to the pancreas of the animals, the baseline data was measured by noninvasive in vivo imaging system (IVIS). After the baseline IVIS data were obtained, all the experimental mice were randomly and evenly assigned into groups [the value of mean±3 s.d. of measured IVIS data was calculated, and the animals having an IVIS data within the standard range were assigned into control group (physiological saline was used), the group of the composition of the present invention (24 mg/kg the composition obtained for preparation example 1 was administrated daily), gemcitabine group (100 mg/kg gemcitabine was administered by intravenous injection twice per week continuously for three weeks and discontinuing gemcitabine on the fourth week. These four weeks were named as gemcitabine cycle. There were three gemcitabine cycles in the present example.), and the combination group (100 mg/kg gemcitabine was administered by intravenous injection twice per week continuously for three weeks, and discontinuing gemcitabine on the fourth week, and the 24 mg/kg composition of the present invention obtained from the preparation example 1 were administered daily). […] The time points of IVIS data measurement of this example were: Baseline 10 Day (Baseline 10D), the 17th day (7 days after treatment), the 24th day (14 days after treatment), the 31st day (21 days after treatment), the 38th day (28 days after treatment), the 45th day (35 days after treatment), and the 59th day (49 days after treatment) of experiment. The blood of the experimental mice was collected and the T-bilirubin, GOT, and GPT in blood were examined to monitor the reason causing the jaundice on the fixed time points [Baseline 10 Day (Baseline 10D), the 4th week after treatment, the 8th week after treatment, the 10th week after treatment, and the 12th week after treatment,]. Whether the jaundice occurred or not was also observed by naked eyes. The jaundice signs of mice which could be observed by naked eyes included: emaciation, swollen gall, yellow dark skin, and abnormal yellow limbs and tail. The survival period of each mouse during the experiment was recorded.

[4] = Jaundice observation and blood tests T-bilirubin, GOT, GPT (Example 7); format: in vivo; design: dose or concentration left out as unconfirmed; conditions: 13th week after treatment
Experimental: The luminescence and fluorescence-labelled cells were implanted into pancreas of experimental mice (40 NOD-SCID experimental mice purchased from BioLASCO Taiwan Co., Ltd) with a cell number of 5×10^5 by surgery. 10 days after the cell implantation to the pancreas of the animals, the baseline data was measured by noninvasive in vivo imaging system (IVIS). After the baseline IVIS data were obtained, all the experimental mice were randomly and evenly assigned into groups [the value of mean±3 s.d. of measured IVIS data was calculated, and the animals having an IVIS data within the standard range were assigned into control group (physiological saline was used), the group of the composition of the present invention (24 mg/kg the composition obtained for preparation example 1 was administrated daily), gemcitabine group (100 mg/kg gemcitabine was administered by intravenous injection twice per week continuously for three weeks and discontinuing gemcitabine on the fourth week. These four weeks were named as gemcitabine cycle. […] The survival period of each mouse during the experiment was recorded. […]

Nc1ccn([C@@H]2O[C@H](CO)[C@@H](O)C2(F)F)c(=O)n1 [gemcitabine]
effect of inhibiting the tumor growth of the pancreatic cancer compared to control ([1]; 28 days after treatment, composition 24 mg/kg daily, gemcitabine 100 mg/kg i.v. twice per week): around 50%
day of the experiment on which the first dead mouse was found ([1]; Example 6, control 60th day): 77 days
day of the experiment on which the last dead mouse was found ([1]; Example 6, control 91st day): 100 days
average survival period of the whole group ([1]; Example 6, control 80.1 days): 89.4 days
jaundice ([2]; 9th week after treatment, gemcitabine continuously twice per week): jaundice was found
T-bilirubin in the blood ([2]; 9 weeks after treatment, versus groups not treated with gemcitabine, FIG. 13A): significantly higher
GOT in the blood ([2]; 9 weeks after treatment, versus groups not treated with gemcitabine, FIG. 13B): significantly higher
GPT in the blood ([2]; 9 weeks after treatment, versus groups not treated with gemcitabine, FIG. 13C): significantly higher
inhibition of the tumor growth of the orthotopic xenograft pancreatic cancer compared to control ([3]; 28th day after treatment): 50%-60%
inhibition of the tumor growth of the orthotopic xenograft pancreatic cancer compared to control ([3]; 49th day after treatment): 50%-60%
Average survival period ([3]; Example 7, control group 89.4): 114.7 days
Survival period of the experimental mice ([3]; individual mice, 7 per group, Example 7): 109 Days (2×) and 113 Days and 119 Days and 140 Days and 105 Days and 108 Days
number of mice with T-bilirubin higher than the standard [4]: one
